The text below walks through data of ChEMBL document CHEMBL5465560, “Selectivity Literature for EUbOPEN Chemogenomic Library” (2024).

The target of assay [1] is Serine/threonine-protein kinase/endoribonuclease IRE1 (Homo sapiens) (UniProt O75460). Briefly: Selectivity interaction (LanthaScreen Eu Kinase Binding Assay) EUB0001632a ERN1. The following applies: at 10 µM.
Assay [2] has as its target Tyrosine-protein kinase JAK1 (Homo sapiens, UniProt P23458). Particulars: at 10 µM.
Assay [3] has as its target Macrophage-stimulating protein receptor (Homo sapiens, UniProt Q04912). Briefly: Selectivity interaction (KinomeScan (DiscoverX)) EUB0000229b MST1R. The following applies: at 10 µM.
In assay [4] the target is Ribosomal protein S6 kinase alpha-2 (Homo sapiens) (UniProt Q15349). In words: Selectivity interaction (Kinome Scan (DiscoverX)) EUB0000229b RPS6KA2. Particulars: at 10 µM.
In assay [5] the target is Tyrosine-protein kinase Blk (Homo sapiens) (UniProt P51451). Briefly: Selectivity interaction (KinomeScan (DiscoverX)) EUB0001079a BLK. Particulars: at 1 µM.
Assay [6] has as its target Phosphatidylinositol 4,5-bisphosphate 3-kinase catalytic subunit beta isoform (Homo sapiens) (UniProt P42338). Briefly: Selectivity interaction (KinomeScan (DiscoverX)) EUB0001619a PIK3CB. The following applies: at 1 µM.
In assay [7] the target is Epithelial discoidin domain-containing receptor 1 (Homo sapiens) (UniProt Q08345). Briefly: Selectivity interaction (KinomeScan (DiscoverX)) EUB0001619a DDR1. Particulars: at 1 µM.
The target in assay [8] is Cyclin-dependent kinase 14 (Homo sapiens) (UniProt O94921). Briefly: Selectivity interaction (KinomeScan (DiscoverX)) EUB0001619a CDK14. The following applies: at 1 µM.
Assay [9] addresses T1, Serine/threonine-protein kinase DCLK2 (Homo sapiens) (UniProt Q8N568).
T1 sequence (whole entry): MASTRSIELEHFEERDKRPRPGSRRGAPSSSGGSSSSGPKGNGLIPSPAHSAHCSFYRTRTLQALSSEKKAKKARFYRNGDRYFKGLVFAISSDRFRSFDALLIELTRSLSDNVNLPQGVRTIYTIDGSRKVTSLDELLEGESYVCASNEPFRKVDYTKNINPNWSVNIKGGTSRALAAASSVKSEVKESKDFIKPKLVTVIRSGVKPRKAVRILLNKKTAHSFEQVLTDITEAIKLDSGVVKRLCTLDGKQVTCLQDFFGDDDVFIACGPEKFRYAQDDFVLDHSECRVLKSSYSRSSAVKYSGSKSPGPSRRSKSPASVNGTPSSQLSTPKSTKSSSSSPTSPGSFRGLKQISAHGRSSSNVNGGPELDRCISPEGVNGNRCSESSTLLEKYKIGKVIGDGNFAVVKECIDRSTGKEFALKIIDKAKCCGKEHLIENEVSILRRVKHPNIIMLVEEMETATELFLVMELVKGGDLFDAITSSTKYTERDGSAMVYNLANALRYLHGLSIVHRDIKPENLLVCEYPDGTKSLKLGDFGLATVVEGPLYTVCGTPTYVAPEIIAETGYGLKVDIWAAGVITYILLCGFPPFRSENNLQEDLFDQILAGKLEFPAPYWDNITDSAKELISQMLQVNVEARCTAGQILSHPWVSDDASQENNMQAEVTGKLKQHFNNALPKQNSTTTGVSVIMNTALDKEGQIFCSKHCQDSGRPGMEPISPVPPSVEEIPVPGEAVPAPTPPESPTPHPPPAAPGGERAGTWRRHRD
In words: Selectivity interaction (KinomeScan (DiscoverX)) EUB0000092b DCLK2. The following applies: at 10 µM.

Assay [10] addresses T2, Serine/threonine-protein kinase PLK4 (Homo sapiens) (UniProt O00444).
T2 sequence (whole entry): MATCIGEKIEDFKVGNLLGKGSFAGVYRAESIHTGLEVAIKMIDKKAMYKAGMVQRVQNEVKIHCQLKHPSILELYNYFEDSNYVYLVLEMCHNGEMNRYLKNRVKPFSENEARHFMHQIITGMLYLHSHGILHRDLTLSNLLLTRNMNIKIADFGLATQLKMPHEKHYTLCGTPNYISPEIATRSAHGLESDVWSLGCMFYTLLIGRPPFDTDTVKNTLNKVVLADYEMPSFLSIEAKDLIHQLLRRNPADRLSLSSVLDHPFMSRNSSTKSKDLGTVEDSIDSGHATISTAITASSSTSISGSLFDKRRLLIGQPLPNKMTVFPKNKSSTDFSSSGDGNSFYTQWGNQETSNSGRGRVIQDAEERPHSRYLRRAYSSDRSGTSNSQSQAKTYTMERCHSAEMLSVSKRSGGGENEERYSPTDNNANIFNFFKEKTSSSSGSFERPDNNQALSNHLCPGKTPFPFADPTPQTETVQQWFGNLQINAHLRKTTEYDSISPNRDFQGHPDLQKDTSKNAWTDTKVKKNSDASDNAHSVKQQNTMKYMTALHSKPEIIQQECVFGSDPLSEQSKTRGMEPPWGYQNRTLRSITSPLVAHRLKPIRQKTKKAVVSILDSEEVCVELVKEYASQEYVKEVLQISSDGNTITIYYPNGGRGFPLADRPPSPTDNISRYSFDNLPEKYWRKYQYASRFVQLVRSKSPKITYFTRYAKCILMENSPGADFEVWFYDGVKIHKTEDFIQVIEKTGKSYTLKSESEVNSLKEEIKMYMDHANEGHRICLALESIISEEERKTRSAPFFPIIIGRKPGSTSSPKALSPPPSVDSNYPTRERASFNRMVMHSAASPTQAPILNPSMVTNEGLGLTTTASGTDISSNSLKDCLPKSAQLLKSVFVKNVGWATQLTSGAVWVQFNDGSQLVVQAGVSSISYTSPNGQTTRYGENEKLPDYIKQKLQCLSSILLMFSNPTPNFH
Briefly: Selectivity interaction (KinomeScan (DiscoverX)) EUB0000092b PLK4. Particulars: at 10 µM.

Chain of Macrophage-stimulating protein receptor (Q04912 25-304 limits assumed): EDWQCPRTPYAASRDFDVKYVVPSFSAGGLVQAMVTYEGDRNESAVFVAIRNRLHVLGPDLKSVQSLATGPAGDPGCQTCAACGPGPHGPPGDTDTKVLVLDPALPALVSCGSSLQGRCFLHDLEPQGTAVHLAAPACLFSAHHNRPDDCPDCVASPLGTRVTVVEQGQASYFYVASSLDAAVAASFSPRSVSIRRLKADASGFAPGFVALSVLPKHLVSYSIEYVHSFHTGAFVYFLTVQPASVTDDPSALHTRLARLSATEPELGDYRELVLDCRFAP
Chain of Macrophage-stimulating protein receptor (Q04912 310-1400 limits assumed): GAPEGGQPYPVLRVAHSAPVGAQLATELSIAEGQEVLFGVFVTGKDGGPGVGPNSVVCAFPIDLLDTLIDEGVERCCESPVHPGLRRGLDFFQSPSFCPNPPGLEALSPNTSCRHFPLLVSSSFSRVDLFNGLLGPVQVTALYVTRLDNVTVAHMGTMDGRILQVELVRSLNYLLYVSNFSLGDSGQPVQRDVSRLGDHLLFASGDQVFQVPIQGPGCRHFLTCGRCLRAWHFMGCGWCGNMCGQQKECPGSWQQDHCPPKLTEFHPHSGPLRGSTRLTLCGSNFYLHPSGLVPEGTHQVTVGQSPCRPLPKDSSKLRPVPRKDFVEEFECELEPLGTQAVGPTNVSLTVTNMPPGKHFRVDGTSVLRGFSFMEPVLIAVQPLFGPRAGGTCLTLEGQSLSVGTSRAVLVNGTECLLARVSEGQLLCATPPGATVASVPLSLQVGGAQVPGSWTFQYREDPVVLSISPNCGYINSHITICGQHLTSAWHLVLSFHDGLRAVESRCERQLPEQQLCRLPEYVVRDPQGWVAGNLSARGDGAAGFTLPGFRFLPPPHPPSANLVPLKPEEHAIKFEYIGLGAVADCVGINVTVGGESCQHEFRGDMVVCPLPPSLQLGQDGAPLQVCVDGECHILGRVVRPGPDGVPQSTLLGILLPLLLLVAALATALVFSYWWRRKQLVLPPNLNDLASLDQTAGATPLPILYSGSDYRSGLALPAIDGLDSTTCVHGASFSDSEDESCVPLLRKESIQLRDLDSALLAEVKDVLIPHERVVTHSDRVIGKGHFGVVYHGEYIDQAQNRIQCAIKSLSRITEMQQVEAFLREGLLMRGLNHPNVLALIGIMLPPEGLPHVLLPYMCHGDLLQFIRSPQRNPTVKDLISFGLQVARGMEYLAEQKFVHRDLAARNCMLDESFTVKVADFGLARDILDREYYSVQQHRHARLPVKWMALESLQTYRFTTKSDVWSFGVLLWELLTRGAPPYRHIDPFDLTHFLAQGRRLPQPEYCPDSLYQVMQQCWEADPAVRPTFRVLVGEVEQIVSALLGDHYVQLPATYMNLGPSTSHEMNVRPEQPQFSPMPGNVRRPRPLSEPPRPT
Chain of Tyrosine-protein kinase Blk (Homo sapiens) (P51451 2-505 limits assumed): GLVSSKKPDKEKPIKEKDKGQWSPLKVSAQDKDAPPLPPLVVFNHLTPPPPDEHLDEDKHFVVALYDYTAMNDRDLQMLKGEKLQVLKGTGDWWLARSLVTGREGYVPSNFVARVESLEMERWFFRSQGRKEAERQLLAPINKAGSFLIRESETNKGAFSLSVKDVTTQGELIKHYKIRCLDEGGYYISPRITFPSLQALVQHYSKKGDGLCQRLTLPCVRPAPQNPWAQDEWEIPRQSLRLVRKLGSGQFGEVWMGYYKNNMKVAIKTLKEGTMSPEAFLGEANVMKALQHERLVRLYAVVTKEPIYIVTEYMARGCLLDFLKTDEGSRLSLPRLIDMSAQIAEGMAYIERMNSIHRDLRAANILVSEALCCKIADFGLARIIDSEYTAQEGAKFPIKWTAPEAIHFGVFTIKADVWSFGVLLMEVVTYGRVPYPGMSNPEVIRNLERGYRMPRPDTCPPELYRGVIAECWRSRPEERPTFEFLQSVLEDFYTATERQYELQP
Chain of Serine/threonine-protein kinase/endoribonuclease IRE1 (Homo sapiens) (O75460 19-977 limits assumed): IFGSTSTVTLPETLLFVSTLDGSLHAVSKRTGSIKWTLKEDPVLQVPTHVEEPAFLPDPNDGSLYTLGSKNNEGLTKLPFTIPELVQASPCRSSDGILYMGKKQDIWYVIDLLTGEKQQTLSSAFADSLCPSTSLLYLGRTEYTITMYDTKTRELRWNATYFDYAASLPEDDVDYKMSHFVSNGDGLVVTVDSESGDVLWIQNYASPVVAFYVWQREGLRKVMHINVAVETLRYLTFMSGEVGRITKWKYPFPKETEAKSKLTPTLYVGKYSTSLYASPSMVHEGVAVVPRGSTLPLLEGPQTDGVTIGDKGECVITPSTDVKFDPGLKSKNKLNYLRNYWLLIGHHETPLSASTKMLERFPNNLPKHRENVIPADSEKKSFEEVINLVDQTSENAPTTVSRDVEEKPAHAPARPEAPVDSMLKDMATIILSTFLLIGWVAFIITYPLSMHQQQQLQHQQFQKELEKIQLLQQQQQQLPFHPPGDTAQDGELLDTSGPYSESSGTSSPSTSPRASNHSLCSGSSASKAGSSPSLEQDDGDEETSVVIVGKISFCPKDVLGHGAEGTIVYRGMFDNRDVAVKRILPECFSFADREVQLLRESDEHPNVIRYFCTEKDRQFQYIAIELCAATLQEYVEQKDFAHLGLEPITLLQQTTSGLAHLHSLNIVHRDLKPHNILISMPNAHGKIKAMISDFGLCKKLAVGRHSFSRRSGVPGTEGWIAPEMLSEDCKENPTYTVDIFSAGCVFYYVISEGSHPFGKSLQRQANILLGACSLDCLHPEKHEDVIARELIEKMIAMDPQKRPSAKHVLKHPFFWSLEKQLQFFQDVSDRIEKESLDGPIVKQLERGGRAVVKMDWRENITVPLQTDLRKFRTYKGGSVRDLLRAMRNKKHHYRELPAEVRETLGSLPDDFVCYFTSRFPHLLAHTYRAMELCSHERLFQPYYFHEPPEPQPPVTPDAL
Chain of Cyclin-dependent kinase 14 (Homo sapiens) (O94921 whole entry): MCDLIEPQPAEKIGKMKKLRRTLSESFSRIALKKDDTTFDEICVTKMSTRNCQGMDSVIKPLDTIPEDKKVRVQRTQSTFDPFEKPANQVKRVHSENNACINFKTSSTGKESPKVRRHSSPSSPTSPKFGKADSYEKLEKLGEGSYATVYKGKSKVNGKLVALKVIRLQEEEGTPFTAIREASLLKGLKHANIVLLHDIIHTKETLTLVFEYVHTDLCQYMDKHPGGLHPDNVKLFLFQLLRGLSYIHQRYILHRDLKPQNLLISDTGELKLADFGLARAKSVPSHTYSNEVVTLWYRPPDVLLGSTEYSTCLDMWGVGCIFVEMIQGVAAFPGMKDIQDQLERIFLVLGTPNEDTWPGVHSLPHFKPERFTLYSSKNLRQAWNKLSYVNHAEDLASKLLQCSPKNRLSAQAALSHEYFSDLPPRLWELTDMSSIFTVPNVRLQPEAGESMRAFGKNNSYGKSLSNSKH
Chain of Tyrosine-protein kinase JAK1 (P23458 whole entry): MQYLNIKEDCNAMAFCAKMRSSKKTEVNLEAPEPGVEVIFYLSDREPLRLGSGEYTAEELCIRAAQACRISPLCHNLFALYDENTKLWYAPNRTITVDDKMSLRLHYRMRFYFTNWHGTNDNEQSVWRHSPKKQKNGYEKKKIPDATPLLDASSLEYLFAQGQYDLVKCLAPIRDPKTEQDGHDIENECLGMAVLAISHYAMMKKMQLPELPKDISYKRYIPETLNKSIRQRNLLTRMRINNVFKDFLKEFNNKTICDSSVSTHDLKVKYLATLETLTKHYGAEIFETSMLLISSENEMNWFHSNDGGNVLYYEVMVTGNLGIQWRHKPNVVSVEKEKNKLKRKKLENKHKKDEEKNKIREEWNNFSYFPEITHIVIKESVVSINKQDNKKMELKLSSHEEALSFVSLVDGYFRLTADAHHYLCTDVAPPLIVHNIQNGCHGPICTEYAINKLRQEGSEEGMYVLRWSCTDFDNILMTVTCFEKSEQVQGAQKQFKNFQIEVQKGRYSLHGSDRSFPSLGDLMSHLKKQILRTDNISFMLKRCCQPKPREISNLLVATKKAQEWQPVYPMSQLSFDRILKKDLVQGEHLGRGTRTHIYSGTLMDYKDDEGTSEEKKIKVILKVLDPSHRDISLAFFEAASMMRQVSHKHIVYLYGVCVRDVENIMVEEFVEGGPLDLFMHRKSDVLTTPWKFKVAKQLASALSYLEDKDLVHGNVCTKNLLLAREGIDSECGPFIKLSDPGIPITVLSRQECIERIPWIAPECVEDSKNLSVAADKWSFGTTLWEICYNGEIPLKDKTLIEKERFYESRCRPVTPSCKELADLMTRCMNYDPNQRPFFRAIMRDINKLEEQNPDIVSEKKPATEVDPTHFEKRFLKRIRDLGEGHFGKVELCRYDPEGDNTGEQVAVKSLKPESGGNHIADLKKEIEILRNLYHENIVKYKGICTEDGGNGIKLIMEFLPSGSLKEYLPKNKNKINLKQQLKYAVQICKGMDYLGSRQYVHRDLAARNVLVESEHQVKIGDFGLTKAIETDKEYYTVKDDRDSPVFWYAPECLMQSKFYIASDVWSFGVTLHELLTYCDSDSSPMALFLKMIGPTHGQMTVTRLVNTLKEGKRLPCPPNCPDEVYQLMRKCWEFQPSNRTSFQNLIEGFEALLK

With `Cn1cc(-n2cnc3c(NCc4nc5cc(Cl)c(Cl)cc5[nH]4)nc(N4CCOCC4)nc32)cn1`, in assay [1], the % of inhibition was -111%.
Take `Cc1cc([C@@H](C)Nc2ccccc2C(=O)O)c2nc(N3CCOCC3)cc(=O)n2c1` [AZD-6482]: in assay [2], the % of control is 100%.
In the case of `COc1cc(N(C)c2ccnc3ccc(C(F)(F)F)cc23)cc(OC)c1OC`, the % binding in assay [3] was determined as 82%; in assay [4], 74%.
In assay [5], `Nc1cnc(N2CCc3cc(S(=O)(=O)Nc4c(F)cc(Cl)cc4F)cc(N4CCCC4=O)c32)nc1` [TP-020n] gave a % of control of 100%.
As for `N#Cc1cccc(-c2c[nH]c3ncnc(N4CCOCC4)c23)c1`, the % of control in assay [6], in assay [7] and in assay [8] was 100% throughout.
Regarding `CCC(=O)N1CCN(c2ccc(-n3c(=O)ccc4cnc5ccc(-c6cnc7ccccc7c6)cc5c43)cc2C(F)(F)F)CC1`, the % of control in [9] and in [10] was 100% in each case.
